In PubChem BioAssay (NCI):
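Protocol summary: plate cells (96-well), add compound at 5 concentrations, incubate 48 h, interpolate endpoints linearly. Abbreviation: GI50, concentration required for 50% inhibition of growth. TGI denotes the concentration required for complete inhibition of growth.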

Experiments:
Test in all cases: inhibition of tumour cell growth, NCI panel, 48 h
[1] = system: SK-MEL-5 melanoma
[2] = system: ACHN renal
[3] = system: M14 melanoma
[4] = system: A498 renal
[5] = system: MCF7 breast
[6] = system: UACC-257 melanoma
[7] = system: T-47D breast
[8] = system: LOX IMVI melanoma
[9] = system: BT-549 breast
[10] = system: MALME-3M melanoma
[11] = system: HCT-116 colon
[12] = system: DU-145 prostate
[13] = system: SF-539 CNS
[14] = system: OVCAR-4 ovarian
[15] = system: MDA-MB-231 breast
[16] = system: HCC-2998 colon
[17] = system: OVCAR-3 ovarian
[18] = system: OVCAR-8 ovarian
[19] = system: KM12 colon
[20] = system: NCI-H522 lung
[21] = system: NCI-H226 lung
[22] = system: NCI-H460 lung
[23] = system: 786-0 renal
[24] = system: SK-MEL-28 melanoma
[25] = system: SF-268 CNS
[26] = system: HS 578T breast
[27] = system: CAKI-1 renal
[28] = system: PC-3 prostate
[29] = system: RPMI-8226 leukemia

Cn1cc(-c2cc(-c3cn(C)c4ccccc34)[nH]n2)c2ccccc21
GI50 [1]: 13.1 µM | TGI [1]: > 100 µM | GI50 [2]: 7.68 µM | TGI [2]: > 100 µM | GI50 [3]: > 100 µM | TGI [3]: > 100 µM | GI50 [4]: 19.6 µM | TGI [4]: 90.3 µM | GI50 [5]: 3.95 µM | TGI [5]: > 100 µM | GI50 [6]: 80.6 µM | TGI [6]: > 100 µM | GI50 [7]: 79.7 µM | TGI [7]: > 100 µM | GI50 [8]: 5.38 µM | TGI [8]: > 100 µM | GI50 [9]: 15.9 µM | TGI [9]: 61.7 µM | GI50 [10]: 93.1 µM | TGI [10]: > 100 µM | GI50 [11]: 19 µM | TGI [11]: > 100 µM | GI50 [12]: 15.6 µM | TGI [12]: > 100 µM | GI50 [13]: 16.2 µM | TGI [13]: 44.3 µM | GI50 [14]: 34.9 µM | TGI [14]: > 100 µM | GI50 [15]: 8.06 µM | TGI [15]: > 100 µM | GI50 [16]: 4.74 µM | TGI [16]: > 100 µM | GI50 [17]: 28.4 µM | TGI [17]: > 100 µM | GI50 [18]: 28.8 µM | TGI [18]: > 100 µM | GI50 [19]: 4.58 µM | TGI [19]: > 100 µM | GI50 [20]: 22.1 µM | TGI [20]: > 100 µM | GI50 [21]: 19.8 µM | TGI [21]: 99 µM | GI50 [22]: 4.48 µM | TGI [22]: > 100 µM | GI50 [23]: 14.1 µM | TGI [23]: 41.2 µM | GI50 [24]: > 100 µM | TGI [24]: > 100 µM | GI50 [25]: 16 µM | TGI [25]: > 100 µM | GI50 [26]: 18.5 µM | TGI [26]: > 100 µM | GI50 [27]: > 100 µM | TGI [27]: > 100 µM | GI50 [28]: 8.11 µM | TGI [28]: > 100 µM | GI50 [29]: 37.8 µM
